Results as given in PubChem BioAssay AID330 (DTP/NCI, 2004).
Values joined by “and” are separate entries in the source; they are usually repeats but may differ in a detail not shown here. Equal entries are not always repeated. Inconclusive results and toxic doses are left out. Rule for the calls: active = survival T/C of 150% or more; inactive = T/C below 125% in these data.

Test system: P388 leukemia ip, CD2F1 mice, survival T/C
Experiment: NCI In Vivo Anticancer Drug Screen. Data for tumor model P388 Leukemia (intraperitoneal) in CD2F1 (CDF1) mice
Conditions: endpoint: median survival time, higher = longer survival
Summary of the method: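 Mice carrying the transplanted tumor received test compound or vehicle. Survival was recorded in each group, and the value is the treated-group measurement divided by that of the vehicle-treated control group.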

Measured: T/C

O=C1C=C2C=CC(O)C(O)C2O1 (centres undefined)
inactive: dose: 2.5 mg/kg/injection, schedule: Q01DX009 (ip), vehicle: Klucel (hydroxypropylcellulose) (HPC) 102 % of control | dose: 5.0 mg/kg/injection, schedule: Q01DX009 (ip), vehicle: Klucel (hydroxypropylcellulose) (HPC) 98 % of control | dose: 10.0 mg/kg/injection, schedule: Q01DX009 (ip), vehicle: Klucel (hydroxypropylcellulose) (HPC) 100 % of control | dose: 20.0 mg/kg/injection, schedule: Q01DX009 (ip), vehicle: Klucel (hydroxypropylcellulose) (HPC) 94 % of control

CN(C)c1ccc(C(Nc2ccc(S(=O)(=O)Nc3ccccc3)cc2)c2ccc(N(C)C)cc2)cc1
inactive: dose: 100.0 mg/kg/injection, schedule: Q04DX003 (ip), vehicle: Klucel (hydroxypropylcellulose) (HPC) 105 % of control | dose: 200.0 mg/kg/injection, schedule: Q04DX003 (ip), vehicle: Klucel (hydroxypropylcellulose) (HPC) 110 % of control | dose: 400.0 mg/kg/injection, schedule: Q04DX003 (ip), vehicle: Klucel (hydroxypropylcellulose) (HPC) 105 % of control

CCCCCCCCCCCN(CCCCCCCCCCC)CC(O)c1cc2c(c3ccccc13)CCCC2 (centres undefined)
inactive: dose: 50.0 mg/kg/injection, schedule: Q01DX005 (ip), vehicle: Klucel (hydroxypropylcellulose) (HPC) 98 % of control | dose: 100.0 mg/kg/injection, schedule: Q01DX005 (ip), vehicle: Klucel (hydroxypropylcellulose) (HPC) 100 % of control | dose: 200.0 mg/kg/injection, schedule: Q01DX005 (ip), vehicle: Klucel (hydroxypropylcellulose) (HPC) 96 % of control

S=C(Nc1ccccc1)SSC(Cl)(Cl)Cl
inactive: dose: 12.5 mg/kg/injection, schedule: Q01DX009 (ip), vehicle: saline + Tween-80 + alcohol 93 % of control | dose: 25.0 mg/kg/injection, schedule: Q01DX009 (ip), vehicle: saline + Tween-80 + alcohol 94 % of control | dose: 50.0 mg/kg/injection, schedule: Q01DX009 (ip), vehicle: saline + Tween-80 + alcohol 109 % of control | dose: 50.0 mg/kg/injection, schedule: Q01DX009 (ip), vehicle: saline with Tween-80 117 % of control | dose: 100.0 mg/kg/injection, schedule: Q01DX009 (ip), vehicle: saline with Tween-80 114 % of control

O=C(Cc1nc2ccccc2[nH]c1=O)N/N=C/c1ccc2c(c1)CCC2
inactive: dose: 60.0 mg/kg/injection, schedule: Q01DX005 (ip), vehicle: saline with Tween-80 92 % of control and 95 % of control | dose: 120.0 mg/kg/injection, schedule: Q01DX005 (ip), vehicle: saline with Tween-80 100 % of control | dose: 240.0 mg/kg/injection, schedule: Q01DX005 (ip), vehicle: saline with Tween-80 89 % of control

CC(=O)ON(C(C)=O)c1ccc(C(=O)OC2(C)CC(C)(C)[N+]([O-])=N2)cc1 (centres undefined) (tested in a mixture with another compound)
inactive: dose: 12.5 mg/kg/injection, schedule: Q01DX009 (ip), vehicle: water 95 % of control | dose: 25.0 mg/kg/injection, schedule: Q01DX009 (ip), vehicle: water 101 % of control | dose: 50.0 mg/kg/injection, schedule: Q01DX009 (ip), vehicle: water 94 % of control | dose: 200.0 mg/kg/injection, schedule: Q01DX009 (ip), vehicle: water 106 % of control

Cc1ncn2cnnc2c1C
inactive: dose: 100.0 mg/kg/injection, schedule: Q04DX003 (ip), vehicle: saline with Tween-80 89 % of control | dose: 200.0 mg/kg/injection, schedule: Q04DX003 (ip), vehicle: saline with Tween-80 95 % of control
